Results taken from the NIST ThermoML archive (doi:10.1016/j.jct.2007.03.007).
± gives the expanded uncertainty stated by the source.

How the values were obtained:
[1] = Liquid; for mass density: 101.33 kPa
[2] = refractive index (Na D-line) (dimensionless); conditions: 101.33 kPa, Liquid, Standard Abbe refractometry
[3] = 298.15 K, Vibrating tube method

Q: For `CCO[Si](OCC)(OCC)OCC` [tetraethoxysilane], which mass density [1, 3] is on record?
A: 933.4 ± 2 kg/m3

Q: What about the “vapor or sublimation pressure” value ([1]; 439.55 K) of the same compound?
A: 95.5 ± 4 kPa

Q: And the refractive index ([2]; 298.15 K)?
A: 1.3825 ± 0.0008

Q: For `COC(C)(C)C` [2-methoxy-2-methylpropane], which mass density ([1]; 303.15 K, Vibrating tube method) is on record?
A: 742 ± 2 kg/m3

Q: And the “vapor or sublimation pressure” value ([1]; 326.45 K)?
A: 95.5 ± 4 kPa

Q: And the refractive index ([2]; 293.15 K)?
A: 1.369 ± 0.0008

Q: Which mass density [1, 3] does the source give for `Brc1ccccc1` [bromobenzene] here?
A: 1488.3 ± 2 kg/m3

Q: And the “vapor or sublimation pressure” value ([1]; 427.05 K)?
A: 95.5 ± 4 kPa

Q: And the refractive index ([2]; 298.15 K)?
A: 1.5571 ± 0.0008

Q: With `CC(C)O` [propan-2-ol] as the compound, how does the mass density [1, 3] read?
A: 781.3 ± 2 kg/m3

Q: What about the “vapor or sublimation pressure” value ([1]; 354.05 K) of the same compound?
A: 95.5 ± 4 kPa

Q: And the refractive index ([2]; 298.15 K)?
A: 1.3751 ± 0.0008

Q: Which results are given for `CC(=O)CC(C)=O` [2,4-pentanedione]?
A: mass density [1, 3]: 972 ± 2 kg/m3; vapor or sublimation pressure ([1]; 409.35 K): 95.5 ± 4 kPa; refractive index ([2]; 293.15 K): 1.4511 ± 0.0008

Q: Which mass density ([1]; 298.15 K) does the source give for `CC#N` [acetonitrile] here?
A: 776.5 ± 2 kg/m3

Q: What about the “vapor or sublimation pressure” value ([1]; 352.15 K) of the same compound?
A: 95.5 ± 4 kPa

Q: What about the “vapor or sublimation pressure” value ([1]; 352.55 K) of the same compound?
A: 95.5 ± 4 kPa

Q: And the refractive index ([2]; 298.15 K)?
A: 1.3416 ± 0.0008

Q: With `COc1ccccc1` [anisole] as the compound, how does the mass density [1, 3] read?
A: 989.3 ± 2 kg/m3

Q: What about the “vapor or sublimation pressure” value ([1]; 424.65 K) of the same compound?
A: 95.5 ± 4 kPa

Q: And the refractive index ([2]; 298.15 K)?
A: 1.5142 ± 0.0008
